The numbers were not newly measured in patent US12508236B2, “Solid nanoparticle with inorganic coating” (Nanexa AB, priority 2013, dated 2025), which cites them from elsewhere.

“Also recorded” adds a separate entry of the source.

For `CCOC(=O)C1=C(C)NC(C)=C(C(=O)OC)C1c1cccc(Cl)c1Cl` (racemic) [Felodipine, (RS)-3-ethyl 5-methyl 4-(2,3-dichlorophenyl)-2,6-dimethyl-1,4-dihydropyridine-3,5-dicarboxylate], the water solubility entry is given as “very low water solubility”. Take `CC(=O)Nc1ccc(O)cc1` [Paracetamol, N-(4-hydroxifenyl)acetamid]: the water solubility entry was “high water solubility; also recorded: very water soluble”. For the same molecule, the solubility in heptane result (heptane) is reported as “low solubility”.
